Assay results from US20040071650A1, “Use of cyclosporin 7-thioamide derivatives for hair growth” (priority 2000, published 2004).
“Also recorded” adds a separate entry of the source.

What was measured:
C57BL/6 mice (female) = test: Test of hair regrowth effects of 7-thioamide derivatives of cyclosporin on shaved backs of mice; conditions: for hair regrowth effect (in words): hair regrowth evaluation of synthesized thioamide derivatives; for Area ratio (ratio of the area where hairs newly grew to the hair removed area): C57BL/6 female mice, 100 μl (0.1% w/v) applied on hair removed back once a day for 30 days, vehicle 32
Experimental: C57BL/6 mice (female), 42˜49 days old, were used in this test.
First of all, mice were removed of hair on their backs using an electric shaver, and weighed. The mice were divided into several groups with weights equally distributed. After one day of adaptation, cyclosporin A and cyclosporin derivatives were applied over the hair removed area once a day per each individual for 30 days. Here, the applied amount of cyclosporin A and derivatives thereof was 100 μl (0.1% w/v). The degree of hair growth were observed by naked eye. The ratio of the area where hairs newly grew to the hair removed area were determined.

mouse's back = conditions: comparative experiments on mouse's back; cited from earlier work

Substance	hair regrowth effect (in words) (C57BL/6 mice (female))	hair regrowth effect relative to minoxidil (mouse's back)	Area ratio (ratio of the area where hairs newly grew to the hair removed area) (C57BL/6 mice (female)) [%]
Cyclosporin A 4,7-bis(thioamide) [cyclosporin 4,7-bis(tioamide), reference compound]	not all of those derivatives have hair regrowth effect, but only cyclosporin 7-thioamide		
Cyclosporin A [reference compound]		about 100 times	87
Cyclosporin D 7-thioamide ([Val]^2-[^7ψ^8 CS—NH] cyclosporin)			79
Cyclosporin B 7-thioamide ([Ala]^2-[^7ψ^8 CS—NH] cyclosporin)			81
Cyclosporin C 7-thioamide ([Thr]^2-[^7ψ^8 CS—NH] cyclosporin)			87
Cyclosporin A 4-thioamide [cyclosporin 4-thioamide, reference compound]	not all of those derivatives have hair regrowth effect, but only cyclosporin 7-thioamide		
Cyclosporin A 7-thioamide ([^7ψ^8 CS—NH] cyclosporin A) [cyclosporin 7-thioamide]	does have the hair regrowth effect; also recorded: superior hair regrowth (restoring) effect to any other compounds		
Cyclosporin G 7-thioamide ([Nva]^2-[^7ψ^8 CS—NH] cyclosporin)			88
